# Where a name gives a salt, the structure may show the parent alone. Read-outs that look alike come from different tables or passages of the source.
# Tests used:
# [1] = over 24 h; ref [58]; cited from earlier work
# [2] = tested on: Phenion®FT Skin Models (keratinocytes and fibroblasts)
# [3] = EpiSkin S9 over 4 h for IQ; ref [58]; cited from earlier work
# rats and mice = details: cited from earlier work; for Carcinogenicity: rodent studies, topical for sodium xylene sulfonate, ref [65], [72], [82], [85]
# [4] = Solubility in vehicle and precipitation on the skin; type: physicochemical; details: for Doses with precipitation on the tissue surface: visual inspection, at cell harvest; for Top dose limited by solubility in acetone: acetone vehicle
# [5] = tested on: bone marrow, blood, liver, skin; details: cited from earlier work
Molecule,Effect on % tail DNA / DNA migration in APC experiment [2],Effect on % tail DNA / DNA migration in standard experiment [2],RS Comet assay overall classification [2],Dose producing signs of strong cytotoxicity that limited the top dose (Phenion®FT Skin Models; human) [µg/cm^2],further results
"2-Amino-3-methylimidazo[4,5-f]quinolone [IQ]",did not show a statistically significant increase in DNA damage at any dose,moderate increase in % tail DNA was detected in one mid-dose group that was slightly outside the cytotoxicity limits,negative,,Metabolism in ex vivo skin [1]: not metabolised; Metabolism by skin S9 [3]: not metabolised; IARC class (rats and mice; ref IARC): 2A; Dose(s) exceeding the cytotoxicity limit in main or APC experiments (Phenion®FT Skin Models): 33.3–300 µg/cm^2
"Cc1ccc(N)cc1N [2,4-DAT, 2,4-diaminotoluene]",,did not increase the % tail DNA of either cell type,negative,1280,Dose(s) exceeding the cytotoxicity limit in main or APC experiments (Phenion®FT Skin Models; human): 1200 µg/cm^2
"Cc1c(N)cccc1N [2,6-DAT, 2,6-diaminotoluene]",,did not increase the DNA migration,negative,800,Dose(s) exceeding the cytotoxicity limit in main or APC experiments (Phenion®FT Skin Models; human): ≥ 160 µg/cm^2
"CC(=O)Nc1ccc2c(c1)Cc1ccccc1-2 [2-AAF, 2-acetylaminofluorene]",significant increase in DNA migration at all doses tested,no increase in DNA migration was observed,positive,,"Doses with precipitation on the tissue surface [4]: ≥ 128 µg/cm^2; Cell type(s) with increased DNA migration [2]: increased in both cell types; Dependence of the result on APC [2]: detected in the presence of APC only; Dose(s) with statistically significant increase in % tail DNA, keratinocytes ([2]; human): 80 µg/cm^2; Dose(s) exceeding the cytotoxicity limit in main or APC experiments (Phenion®FT Skin Models; human): 80 µg/cm^2"
"Nc1ccc(Cl)cc1 [4-Chloroaniline, 4-chloroaniline]",did not induce an increase in DNA migration,did not increase % tail DNA in either cell type,negative,5,Metabolism in ex vivo skin [1]: not metabolised; Metabolism by skin S9 [3]: N-acetylated to N-acetyl-4-chloroaniline; Carcinogenicity (rats and mice): carcinogenic; Dose(s) exceeding the cytotoxicity limit in main or APC experiments (Phenion®FT Skin Models; human): ≥ 10 µg/cm^2
O=[N+]([O-])c1ccc(O)cc1 [4-Nitrophenol],,statistically significant increase in % tail DNA was observed in keratinocytes only at the two lowest doses,negative,48,Dose tested without cytotoxicity exceeding the cut-off (Phenion®FT Skin Models; human): 32 µg/cm^2
"C[C@@]1(CO)[C@H](O)CC[C@@]2(C)[C@H]1CC[C@H]1C[C@@H]3C[C@@]12CC[C@]3(O)CO [APC, aphidicolin]",,,,,Effect on background DNA damage (SC + APC vs SC) [2]: no major impact on the background DNA damage
"Cc1cn([C@H]2C[C@H](N=[N+]=[N-])[C@@H](CO)O2)c(=O)[nH]c1=O [AZT, Azidothymidine]",,strong dose-dependent increase in % tail DNA in keratinocytes and fibroblasts,positive,700,Cell type(s) with increased DNA migration [2]: increased in both cell types
Nc1nc[nH]n1 [Amitrole],small but statistically significant increase in DNA migration was observed at several doses,no observed cytotoxicity outside the cut-off limits or increases in DNA damage,negative,,Dose tested without cytotoxicity exceeding the cut-off (Phenion®FT Skin Models; human): 1600 µg/cm^2
CC1(C)S[C@@H]2[C@H](NC(=O)[C@H](N)c3ccccc3)C(=O)N2[C@H]1C(=O)O [Ampicillin sodium salt],,small but statistically significant increase in DNA migration was seen in fibroblasts only at the high dose,negative,,
"c1ccc2c(c1)cc1ccc3cccc4ccc2c1c34 [BaP, benzo[a]pyrene]",,,,,solubility ([4]; acetone): 10000 µg/mL; Top dose limited by solubility in acetone [4]: 160 µg/cm^2; Dose tested without cytotoxicity exceeding the cut-off (Phenion®FT Skin Models; human): 160 µg/cm^2
"O=P1(N(CCCl)CCCl)NCCCO1 (stereo not shown) [CP, Cyclophosphamide]",,dose-dependent increase in % tail DNA in both cell types,positive,1200,Cell type(s) with increased DNA migration [2]: increased in both cell types
"C1=Cc2cc3cccc4ccc5ccc1c2c5c43 [CPPE, Cyclopenta[c,d]pyrene]",significant increase in % tail DNA was observed in the absence of limiting cytotoxicity at four of the top five doses tested in the keratinocytes,DNA migration was not increased in either cell type,positive,,Cell type(s) with increased DNA migration [2]: keratinocytes only; Dependence of the result on APC [2]: detected in the presence of APC only; Dose producing signs of strong cytotoxicity that limited the top dose (Phenion®FT Skin Models): 75 µg/cm^2
COc1cc(/C=C/C(=O)CC(=O)/C=C/c2ccc(O)c(OC)c2)ccc1O [Curcumin],did not increase DNA migration in either experiment,marked increase in DNA damage,negative,50,Doses with precipitation on the tissue surface [4]: precipitation was present at all the tested doses; Dose(s) exceeding the cytotoxicity limit in main or APC experiments (Phenion®FT Skin Models; human): 50 µg/cm^2
O=C1CCCCC1 [Cyclohexanone],,,,,Dependence of the result on APC [2]: positive or equivocal results in the presence of APC only
"OC[C@@H](O)[C@@H](O)[C@H](O)[C@H](O)CO [D-Mannitol, D-mannitol]",did not significantly increase DNA migration,no increase in DNA migration was observed at any dose,negative,,Top dose limited by solubility in acetone [4]: 320 µg/cm^2
"Cc1c2ccccc2c(C)c2c1ccc1ccccc12 [DMBA, 7,12-dimethylbenz[a]anthracene]",,,,,Dependence of the result on APC [2]: detected in the presence of APC only
"CN(C)N=O [DMNA, dimethylnitrosamine]",,,negative,,
"CCOS(C)(=O)=O [EMS, Ethyl methanesulfonate]",,clear and dose-dependent increase in % tail DNA in both cell types,positive,200,Cell type(s) with increased DNA migration [2]: increased in both cell types
CCc1cc(C(N)=S)ccn1 [Ethionamide],no significant increases in % tail DNA or cytotoxicity were observed,failed to increase % tail DNA,negative,,"Top dose limited by solubility in acetone [4]: 320 µg/cm^2; Expert call of the performing laboratory in the coded phase [2]: equivocal; Dose(s) with statistically significant increase in DNA migration, fibroblasts ([2]; human): 320 µg/cm^2; Dose tested without cytotoxicity exceeding the cut-off (Phenion®FT Skin Models; human): 240 µg/cm^2; Dose(s) exceeding the cytotoxicity limit in main or APC experiments (Phenion®FT Skin Models; human): 320 µg/cm^2"
COc1cc([C@@H]2c3cc4c(cc3[C@@H](O[C@@H]3O[C@@H]5CO[C@@H](C)O[C@H]5[C@H](O)[C@H]3O)[C@H]3COC(=O)[C@H]23)OCO4)cc(OC)c1O [Etoposide],,,,> 120,
"COS(C)(=O)=O [MMS, methyl methane sulfonate]",,,,,Positive control response in standard experiments [2]: clear induction of DNA migration
"NC(=S)N(C1CCCCC1)C1CCCCC1 [N,N-dicyclohexyl thiourea]",did not cause any significant increases in % tail DNA,did not induce an increase in % tail DNA in either cell type,negative,,Carcinogenicity (rats and mice): not carcinogenic; Dose producing signs of strong cytotoxicity that limited the top dose (Phenion®FT Skin Models): 200 µg/cm^2; Dose(s) exceeding the cytotoxicity limit in main or APC experiments (Phenion®FT Skin Models): ≥ 160 µg/cm^2
CCCCCl [N-butyl chloride],did not show any significant increases in DNA migration,,negative,,"Dose with statistically significant increase in DNA migration, keratinocytes [2]: 400 µg/cm^2; Dose tested without cytotoxicity exceeding the cut-off (Phenion®FT Skin Models): 1600 µg/cm^2"
"Oc1cccc(O)c1 [Resorcinol, 1,3-Dihydroxybenzene]",,,,250,In vivo micronucleus test in mice [5]: positive; In vivo micronucleus test in rats [5]: no effects
"CC(C)(C)c1cc(O)ccc1O [TBHQ, Tert-butylhydroquinone]",small but statistically significant increase in DNA migration at the two highest doses in fibroblasts only,Moderate increases in % tail DNA were observed in this experiment but only at the two highest doses that both exceeded the cytotoxicity limit,negative,40,"Expert call of the performing laboratory in the coded phase [2]: equivocal; Dose(s) with statistically significant increase in DNA migration, fibroblasts ([2]; human): 16 µg/cm^2; Dose(s) exceeding the cytotoxicity limit in main or APC experiments (Phenion®FT Skin Models; human): 20 µg/cm^2"
Sodium xylene sulfonate,no significant increases in % tail DNA,did not induce an increase in % tail DNA in either cell type,negative,,Carcinogenicity (rats and mice): negative for carcinogenicity; Dose producing signs of strong cytotoxicity that limited the top dose (Phenion®FT Skin Models): 512 µg/cm^2; Dose(s) exceeding the cytotoxicity limit in main or APC experiments (Phenion®FT Skin Models): 640 µg/cm^2
